Like-named read-outs stand apart in the source and are kept apart here.
Columns and labels:
nuOXPHOS transcripts = assay type: cell-based, mouse; conditions: for nucOX (composite Z-score): normalized score vs mock-treated (DMSO) wells
C2C12 myotubes = conditions: for Viability (composite Z-score): normalized score vs mock-treated (DMSO) wells
cytochrome c = assay type: cell-based, mouse; conditions: for cyt c (composite Z-score): normalized score vs mock-treated (DMSO) wells
[1] = test system: mitochondrial membrane potential; assay type: cell-based, mouse; conditions: for ΔΨm (composite Z-score): normalized score vs mock-treated (DMSO) wells
OXPHOS gene expression = assay type: cell-based, mouse; conditions: for GE-HTS (composite Z-score): normalized score vs mock-treated (DMSO) wells
[2] = test system: cellular dehydrogenase activity; conditions: for MTT (composite Z-score): normalized score vs mock-treated (DMSO) wells
mtOXPHOS transcripts = assay type: cell-based, mouse; conditions: for mitoOX (composite Z-score): normalized score vs mock-treated (DMSO) wells
reactive oxygen species = assay type: cell-based, mouse; conditions: for ROS (composite Z-score): normalized score vs mock-treated (DMSO) wells
[3] = composite Z-score vs mock-treated (DMSO) wells, Conc 20 μM
[4] = composite Z-score vs DMSO, Conc 20 μM
[5] = composite Z-score vs DMSO wells, Conc 20 μM
[6] = 20 μM, composite Z-score vs DMSO
[7] = composite Z-score vs mock-treated (DMSO) wells, concentration of each compound in μM
[8] = normalized composite Z-score vs mock-treated (DMSO) wells, Conc 20 μM

COc1cc2c(cc1OC)[C@@H]1C(=O)c3ccc(OC)c(CC=C(C)C)c3O[C@@H]1CO2 [rotenonic acid, methyl ether]
nucOX (nuOXPHOS transcripts; [3]): −1.024 | Viability (C2C12 myotubes; [3]): 0.582 | cyt c (cytochrome c; [3]): −3.644 | ΔΨm [1, 3]: −3.751 | GE-HTS (OXPHOS gene expression; [3]): −2.268 | MTT [2, 3]: −3.898 | mitoOX (mtOXPHOS transcripts; [3]): −4.305 | ROS (reactive oxygen species; [3]): −3.513

COc1cc2c(cc1OC)[C@@H]1C(=O)c3ccc(O)c(CC=C(C)C)c3O[C@@H]1CO2 [rotenonic acid, reference compound]
nucOX (nuOXPHOS transcripts; [3]): −0.010 | Viability (C2C12 myotubes; [3]): 0.206 | cyt c (cytochrome c; [3]): 0.365 | ΔΨm [1, 3]: 0.050 | GE-HTS (OXPHOS gene expression; [3]): −0.064 | MTT [2, 3]: −0.731 | mitoOX (mtOXPHOS transcripts; [3]): −0.108 | ROS (reactive oxygen species; [3]): 0.173

CC[C@@]1(O)C[C@H](O)c2c(cc3c(c2O)C(=O)c2c(O)ccc(O)c2C3=O)[C@H]1C(=O)OC [rutilantinone]
nucOX (nuOXPHOS transcripts; [4]): −1.152 | Viability (C2C12 myotubes; [4]): 0.192 | cyt c (cytochrome c; [4]): 0.372 | ΔΨm [1, 4]: −3.758 | GE-HTS (OXPHOS gene expression; [4]): −1.917 | MTT [2, 4]: −2.979 | mitoOX (mtOXPHOS transcripts; [4]): −3.039 | ROS (reactive oxygen species; [4]): 2.445

OCc1ccccc1O [salicyl alcohol]
nucOX (nuOXPHOS transcripts; [5]): −0.433 | Viability (C2C12 myotubes; [5]): 0.377 | cyt c (cytochrome c; [5]): 0.424 | ΔΨm [1, 5]: −0.590 | GE-HTS (OXPHOS gene expression; [5]): −0.486 | MTT [2, 5]: −0.178 | mitoOX (mtOXPHOS transcripts; [5]): −0.498 | ROS (reactive oxygen species; [5]): 0.479

CC[C@@H](C(=O)[C@@H](C)[C@@H](O)[C@H](C)[C@@H]1O[C@@H]([C@@H](CC)C(=O)O)CC[C@@H]1C)[C@H]1O[C@]2(C=C[C@@H](O)[C@]3(CC[C@@](C)([C@H]4CC[C@](O)(CC)[C@H](C)O4)O3)O2)[C@H](C)C[C@@H]1C [salinomycin, reference compound]
nucOX (nuOXPHOS transcripts; [6]): −0.345 | Viability (C2C12 myotubes; [6]): −0.247 | cyt c (cytochrome c; [6]): −0.566 | ΔΨm [1, 6]: 2.976 | GE-HTS (OXPHOS gene expression; [6]): −1.400 | MTT [2, 6]: −2.918 | mitoOX (mtOXPHOS transcripts; [6]): −3.359 | ROS (reactive oxygen species; [6]): −3.111

C[C@@H]1NCCc2cc(O)c(O)cc21 [salsolinol]
nucOX (nuOXPHOS transcripts; [7]): −0.197 | Viability (C2C12 myotubes; [7]): −1.127 | cyt c (cytochrome c; [7]): −0.994 | ΔΨm [1, 7]: −0.160 | GE-HTS (OXPHOS gene expression; [7]): −0.284 | MTT [2, 7]: −1.113 | mitoOX (mtOXPHOS transcripts; [7]): −0.397 | ROS (reactive oxygen species; [7]): −0.248

C[C@@H]1O[C@@H](O[C@H]2[C@H](O[C@H]3CC[C@@]4(C)[C@@H](CC[C@]5(C)[C@@H]4CC=C4[C@@H]6CC(C)(C)CC[C@]6(C(=O)O)CC[C@]45C)[C@]3(C)CO)OC[C@H](O)[C@@H]2O)[C@H](O)[C@H](O)[C@H]1O [sapindoside A]
nucOX (nuOXPHOS transcripts; [4]): −1.786 | Viability (C2C12 myotubes; [4]): −3.886 | cyt c (cytochrome c; [4]): −4.058 | ΔΨm [1, 4]: −3.760 | GE-HTS (OXPHOS gene expression; [4]): −1.176 | MTT [2, 4]: −4.558 | mitoOX (mtOXPHOS transcripts; [4]): 0.322 | ROS (reactive oxygen species; [4]): −2.825

COc1ccc2c(c1)OC/C(=C\c1ccc(OC)c(O)c1)C2=O [sappanone A dimethyl ether]
nucOX (composite Z-score) (nuOXPHOS transcripts; Conc 20 μM): 0.495 | Viability (composite Z-score) (C2C12 myotubes; Conc 20 μM): −1.045 | cyt c (composite Z-score) (cytochrome c; Conc 20 μM): −0.664 | ΔΨm (composite Z-score) ([1]; Conc 20 μM): 0.017 | GE-HTS (composite Z-score) (OXPHOS gene expression; Conc 20 μM): 0.450 | MTT (composite Z-score) ([2]; Conc 20 μM): −1.865 | mitoOX (composite Z-score) (mtOXPHOS transcripts; Conc 20 μM): 0.248 | ROS (composite Z-score) (reactive oxygen species; Conc 20 μM): −2.429

COc1ccc2c(c1)OC/C(=C/c1ccc(OC)c(OC)c1)C2=O [sappanone A trimethyl ether]
nucOX (composite Z-score) (nuOXPHOS transcripts; Conc 20 μM): 1.458 | Viability (composite Z-score) (C2C12 myotubes; Conc 20 μM): −0.259 | cyt c (composite Z-score) (cytochrome c; Conc 20 μM): −0.471 | ΔΨm (composite Z-score) ([1]; Conc 20 μM): −0.290 | GE-HTS (composite Z-score) (OXPHOS gene expression; Conc 20 μM): 1.090 | MTT (composite Z-score) ([2]; Conc 20 μM): −0.980 | mitoOX (composite Z-score) (mtOXPHOS transcripts; Conc 20 μM): 0.094 | ROS (composite Z-score) (reactive oxygen species; Conc 20 μM): 0.120

C[C@]12CC[C@H](O)C[C@H]1CC[C@@H]1[C@@H]2[C@H](O)C[C@]2(C)[C@@H](C3=CC(=O)OC3)CC[C@]12O [sarmentogenin]
nucOX (nuOXPHOS transcripts; [8]): 0.691 | Viability (C2C12 myotubes; [8]): 0.694 | cyt c (cytochrome c; [8]): 0.614 | ΔΨm [1, 8]: −0.354 | GE-HTS (OXPHOS gene expression; [8]): 0.508 | MTT [2, 8]: −0.191 | mitoOX (mtOXPHOS transcripts; [8]): 0.077 | ROS (reactive oxygen species; [8]): −0.151

COc1cc2ccc(=O)oc2cc1O [scopoletin]
nucOX (nuOXPHOS transcripts): −0.513 | nucOX (nuOXPHOS transcripts; [6]): 0.746 | Viability (C2C12 myotubes): 0.413 | Viability (C2C12 myotubes; [6]): 0.675 | cyt c (cytochrome c): 0.501 | cyt c (cytochrome c; [6]): 0.928 | ΔΨm [1]: 0.146 | ΔΨm [1, 6]: −0.056 | GE-HTS (OXPHOS gene expression): −0.462 | GE-HTS (OXPHOS gene expression; [6]): 0.543 | MTT [2]: 0.261 | MTT [2, 6]: −0.957 | mitoOX (mtOXPHOS transcripts): −0.291 | mitoOX (mtOXPHOS transcripts; [6]): 0.101 | ROS (reactive oxygen species): −0.017 | ROS (reactive oxygen species; [6]): 0.727

C/C=C(/C)C(=O)O[C@H]1Cc2c(ccc3ccc(=O)oc23)OC1(C)C [selinidin]
nucOX (composite Z-score) (nuOXPHOS transcripts; Conc 20 μM): −0.328 | Viability (composite Z-score) (C2C12 myotubes; Conc 20 μM): 0.773 | cyt c (composite Z-score) (cytochrome c; Conc 20 μM): −0.478 | ΔΨm (composite Z-score) ([1]; Conc 20 μM): 0.013 | GE-HTS (composite Z-score) (OXPHOS gene expression; Conc 20 μM): −0.347 | MTT (composite Z-score) ([2]; Conc 20 μM): −0.359 | mitoOX (composite Z-score) (mtOXPHOS transcripts; Conc 20 μM): −0.285 | ROS (composite Z-score) (reactive oxygen species; Conc 20 μM): 0.838

— patent publication US20090143279A1 (priority 2007, published 2009)
